According to patent US11554120B2, “1H-pyrazolo[4,3-d]pyrimidine compounds as toll-like receptor 7 (TLR7) agonists and methods and uses therefor” (BRISTOL-MYERS SQUIBB COMPANY, priority 2018, dated 2023):

Biological target: T1, human TLR7 (Homo sapiens, UniProt Q9NYK1)
T1 construct: host or cells: HEK-Blue TLR7 cells (engineered human embryonic kidney cells)
T1 sequence (Q9NYK1 27-1049): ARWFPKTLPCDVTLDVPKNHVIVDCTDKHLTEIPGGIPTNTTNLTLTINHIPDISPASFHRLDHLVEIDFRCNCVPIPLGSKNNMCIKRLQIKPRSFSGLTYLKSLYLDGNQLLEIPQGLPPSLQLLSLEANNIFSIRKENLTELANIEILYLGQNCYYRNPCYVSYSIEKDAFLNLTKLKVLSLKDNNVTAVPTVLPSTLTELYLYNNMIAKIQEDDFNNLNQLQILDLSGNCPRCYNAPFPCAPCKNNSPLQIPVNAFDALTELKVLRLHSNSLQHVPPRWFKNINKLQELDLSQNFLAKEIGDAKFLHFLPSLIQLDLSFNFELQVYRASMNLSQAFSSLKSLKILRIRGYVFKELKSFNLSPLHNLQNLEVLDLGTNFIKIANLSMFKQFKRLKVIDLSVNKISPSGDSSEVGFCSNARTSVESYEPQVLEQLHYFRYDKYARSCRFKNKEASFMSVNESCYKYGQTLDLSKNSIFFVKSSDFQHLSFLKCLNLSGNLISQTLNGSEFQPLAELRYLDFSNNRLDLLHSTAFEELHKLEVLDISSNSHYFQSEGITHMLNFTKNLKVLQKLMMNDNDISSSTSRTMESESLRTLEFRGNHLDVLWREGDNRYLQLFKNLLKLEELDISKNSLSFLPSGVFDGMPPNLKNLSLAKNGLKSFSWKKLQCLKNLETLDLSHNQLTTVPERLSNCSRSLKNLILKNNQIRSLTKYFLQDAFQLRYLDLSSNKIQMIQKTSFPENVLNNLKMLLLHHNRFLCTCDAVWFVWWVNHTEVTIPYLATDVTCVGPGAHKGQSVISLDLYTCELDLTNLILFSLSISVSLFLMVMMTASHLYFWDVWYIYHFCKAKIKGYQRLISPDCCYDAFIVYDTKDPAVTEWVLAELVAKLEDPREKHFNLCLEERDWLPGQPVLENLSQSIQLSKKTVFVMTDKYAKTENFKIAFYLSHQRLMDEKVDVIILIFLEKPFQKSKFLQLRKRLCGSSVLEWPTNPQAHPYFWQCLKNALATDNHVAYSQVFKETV
Experiment: Human TLR7 agonist activity assay (HEK-Blue TLR7 SEAP reporter)
Assay type: cell-based
Conditions: HEK-Blue TLR7 cells, 18 h treatment, in some instances average of plural assays, read-out: hTLR7 EC50
Experimental: Human TLR7 Agonist Activity Assay
HEK-Blue™ TLR7 cells were added to each well of a 384-well tissue-culture plate (15,000 cells per well) and incubated 16-18 h at 37° C., 5% CO2. Compounds (100 nl) were dispensed into wells containing the HEK-Blue™ TLR cells and the treated cells were incubated at 37° C., 5% CO2. After 18 h treatment ten microliters of freshly-prepared Quanti-Blue™ reagent (Invivogen) was added to each well, incubated for 30 min (37° C., 5% CO2) and SEAP levels measured using an Envision plate reader (OD=620 nm).

Compound	EC50
CCCCNc1nc(N)nc2cnn(Cc3ccc(CNC4CCC4)cc3OC)c12 [Compound 800]	58.3 nM
CCCCNc1nc(N)nc2cnn(Cc3ccc(Oc4ccc(CNCCO)cc4)cc3OC)c12 [Compound 802]	43.8 nM
CCCCNc1nc(N)nc2cnn(Cc3ccc(Oc4ccc(CO)cc4)cc3OC)c12 [Compound 803]	569 nM
CCCCNc1nc(N)nc2cnn(Cc3ccc(CNCC(C)(C)O)cc3OC)c12 [Compound 805]	41.4 nM
CCCCNc1nc(N)nc2cnn(Cc3ccc(CNC4CCC(O)CC4)cc3OC)c12 (stereo not shown) [Compound 806]	41.4 nM
CCCCNc1nc(N)nc2cnn(Cc3ccc(CNCC4CC(O)C4)cc3OC)c12 (stereo not shown) [Compound 807]	2550 nM
CCCCNc1nc(N)nc2cnn(Cc3ccc(Oc4ccc(CNCCOC)cc4)cc3OC)c12 [Compound 808]	157 nM
CCCCNc1nc(N)nc2cnn(Cc3ccc(Oc4ccc(CN5CCN(C)CC5)cc4)cc3OC)c12 [Compound 809]	74.5 nM
CCCCNc1nc(N)nc2cnn(Cc3ccc(Oc4ccc(CN5CCN(CCO)CC5)cc4)cc3OC)c12 [Compound 810]	245 nM
CCCCNc1nc(N)nc2cnn(Cc3ccc(CNC4CC(O)C4)cc3OC)c12 (stereo not shown) [Compound 811]	138 nM
CCCCNc1nc(N)nc2cnn(Cc3ccc(CN4CC5CNCC5C4)cc3OC)c12 (stereo not shown) [Compound 812]	102 nM
CCCCNc1nc(N)nc2cnn(Cc3ccc(CN4CC(CCO)C4)cc3OC)c12 [Compound 815]	33.2 nM
CCCCNc1nc(N)nc2cnn(Cc3ccc(CNCCO)cc3OC)c12 [Compound 816]	92.5 nM
CCC[C@@H](CCO)Nc1nc(N)nc2cnn(Cc3ccc(CO)cc3OC)c12 [Compound 817]	27.8 nM
CCCCNc1nc(N)nc2cnn(Cc3ccc(CO)cc3OC)c12 [Compound 818]	258 nM
CCCCNc1nc(N)nc2cnn(Cc3ccc(CNC4(CO)CCCC4)cc3OC)c12 [Compound 820]	121 nM
CCCCNc1nc(N)nc2cnn(Cc3ccc(CN4CCCNCC4)cc3OC)c12 [Compound 821]	33.8 nM
CCCCNc1nc(N)nc2cnn(Cc3ccc(CNc4ccc(CCO)cc4)cc3OC)c12 [Compound 822]	244 nM
CCCCNc1nc(N)nc2cnn(Cc3ccc(CN4CCN(CCO)CC4)cc3OC)c12 [Compound 823]	21.5 nM
CCCCNc1nc(N)nc2cnn(Cc3ccc(CN(C)CCCO)cc3OC)c12 [Compound 825]	43.5 nM
CCCCNc1nc(N)nc2cnn(Cc3ccc(CNCCOC)cc3OC)c12 [Compound 826]	182 nM
CCCCNc1nc(N)nc2cnn(Cc3ccc(CN4CCN(C)CC4)cc3OC)c12 [Compound 827]	47.6 nM

Compound	EC50
CCCCNc1nc(N)nc2cnn(Cc3ccc(CNC(C)(C)C)cc3OC)c12 [Compound 828]	98.7 nM
CCCCNc1nc(N)nc2cnn(Cc3ccc(Oc4ccc(C(C)(C)O)cc4)nc3)c12 [Compound 829]	1340 nM
CCCCNCc1ccc(Cn2ncc3nc(N)nc(NCCCC)c32)c(OC)c1 [Compound 831]	104 nM
CCCCNc1nc(N)nc2cnn(Cc3ccc(CN4CCCC4)cc3OC)c12 [Compound 833]	31.1 nM
CCC[C@@H](CCO)Nc1nc(N)nc2cnn(Cc3ccc(CN4CC5CNCC5C4)cc3OC)c12 (stereo partly shown) [Compound 834]	29.9 nM
CCC[C@@H](CCO)Nc1nc(N)nc2cnn(Cc3ccc(CN4CC5(CNC5)C4)cc3OC)c12 [Compound 835]	89 nM
CCC[C@@H](CCO)Nc1nc(N)nc2cnn(Cc3ccc(Cn4ccnc4)cc3OC)c12 [Compound 836]	15.3 nM
CCC[C@@H](CCO)Nc1nc(N)nc2cnn(Cc3ccc(CNCc4ccncc4)cc3OC)c12 [Compound 837]	2.4 nM
CCC[C@@H](CCO)Nc1nc(N)nc2cnn(Cc3ccc(CN4CCCNCC4)cc3OC)c12 [Compound 838]	39.6 nM
CCC[C@@H](CCO)Nc1nc(N)nc2cnn(Cc3ccc(CN4CC5CC4CN5)cc3OC)c12 (stereo partly shown) [Compound 839]	242 nM
CCC[C@@H](CCO)Nc1nc(N)nc2cnn(Cc3ccc(CNC4CCC4)cc3OC)c12 [Compound 841]	9.7 nM
CCC[C@@H](CCO)Nc1nc(N)nc2cnn(Cc3ccc(CN4CC(CCO)C4)cc3OC)c12 [Compound 842]	28.3 nM
CCC[C@@H](CCO)Nc1nc(N)nc2cnn(Cc3ccc(CN4C[C@@H]5C[C@H]4CN5)cc3OC)c12 [Compound 843]	55.9 nM
CCC[C@@H](CCO)Nc1nc(N)nc2cnn(Cc3ccc(CN4CCc5cnccc5C4)cc3OC)c12 [Compound 844]	4.6 nM
CCCCNc1nc(N)nc2cnn(Cc3ccc(CN4CCCNCC4)cc3OC)c12 [Compound 845]	21.2 nM
CCC[C@@H](CCNC(C)=O)Nc1nc(N)nc2cnn(Cc3ccc(CNC4(C)CCOCC4)cc3OC)c12 [Compound 847]	187 nM
CCC[C@@H](CCO)Nc1nc(N)nc2cnn(Cc3ccc(CNC4(C)CCOCC4)cc3OC)c12 [Compound 848]	33 nM
CCCCNc1nc(N)nc2cnn(Cc3ccc(CN4CCN(CCO)CC4)cn3)c12 [Compound 849]	2030 nM
CCCCNc1nc(N)nc2cnn(Cc3ccc(CN4CCNCC4)cn3)c12 [Compound 850]	1620 nM
CCCCNc1nc(N)nc2cnn(Cc3ccc(CN4CCCC4)cn3)c12 [Compound 851]	1770 nM
CCCCNc1nc(N)nc2cnn(Cc3ccc(CN4CC5CC4CN5)cn3)c12 (stereo not shown) [Compound 852]	3170 nM
CCCCNc1nc(N)nc2cnn(Cc3ccc(CNC4CCC4)cc3F)c12 [Compound 853]	420 nM

Compound	EC50
CCCCNc1nc(N)nc2cnn(Cc3ncc(CNC4CCC4)cc3OC)c12 [Compound 855]	640 nM
CCCCNc1nc(N)nc2cnn(Cc3ncc(CNC4CCOCC4)cc3OC)c12 [Compound 856]	1160 nM
CCCCNc1nc(N)nc2cnn(Cc3ccc(Oc4ccc(CNCC(C)(C)O)cc4)cc3OC)c12 [Compound 857]	11.5 nM
CCCCNc1nc(N)nc2cnn(Cc3ccc(Oc4ccc(CNC5CCOCC5)cc4)cc3OC)c12 [Compound 858]	10.8 nM
CCCCNc1nc(N)nc2cnn(Cc3ccc(Oc4ccc(CNC5CCC5)cc4)cc3OC)c12 [Compound 860]	19.5 nM
CCC[C@@H](CCO)Nc1nc(N)nc2cnn(Cc3ccc(CN4CC(OC)C4)cc3OC)c12 [Compound 861]	1.2 nM
CCC[C@@H](CCO)Nc1nc(N)nc2cnn(Cc3ccc(CN4CC(F)(F)C4)cc3OC)c12 [Compound 862]	11 nM
CCC[C@@H](CCO)Nc1nc(N)nc2cnn(Cc3ccc(CN4CC(O)C4)cc3OC)c12 [Compound 863]	9.5 nM
CCOCCNc1nc(N)nc2cnn(Cc3ccc(CNC4CCC4)cc3OC)c12 [Compound 864]	216 nM
COCCNc1nc(N)nc2cnn(Cc3ccc(CNC4CCC4)cc3OC)c12 [Compound 865]	959 nM
CCC[C@@H](CCO)Nc1nc(N)nc2cnn(Cc3ccc(CNC4CC(C(C)(C)C)C4)cc3OC)c12 (stereo partly shown) [Compound 866]	19.5 nM
CCC[C@@H](CCO)Nc1nc(N)nc2cnn(Cc3ccc(CN4CC(OC(C)C)C4)cc3OC)c12 [Compound 868]	1.4 nM
CCCCNc1nc(N)nc2cnn(Cc3ccc(CN4CCN(CCO)CC4)cc3F)c12 [Compound 870]	1800 nM
CCC[C@H](CCO)Nc1nc(N)nc2cnn(Cc3ccc(CNC4CCC4)cc3OC)c12 [Compound 872]	32.7 nM
CCCCNc1nc(N)nc2cnn(Cc3ccc(CC#N)cc3OC)c12 [Compound 873]	253 nM
CCC[C@@H](CCO)Nc1nc(N)nc2cnn(Cc3ccc(CO)cc3)c12 [Compound 874]	2050 nM
CCC[C@@H](CCO)Nc1nc(N)nc2cnn(Cc3ccc(CNC4CCC4)cc3)c12 [Compound 875]	58 nM
CCC[C@@H](CCO)Nc1nc(N)nc2cnn(Cc3ccc(CN4CC(OC)C4)cc3)c12 [Compound 877]	190 nM
CCC[C@@H](CCO)Nc1nc(N)nc2cnn(Cc3ccc(CN4CC(O)C4)cc3)c12 [Compound 878]	1110 nM
CCC[C@@H](CCO)Nc1nc(N)nc2cnn(Cc3ccc(CN4CCN(CCO)CC4)cc3)c12 [Compound 879]	370 nM
